The values that follow are results of earlier work, collected in US9808437B2, “Monounsaturated fatty acid compositions and use for treating atherosclerosis” (BURKE & BOYER NYC, priority 2014, dated 2017).

The series deals with ApoE-deficient mice. To be noted: 20 mg/kg/day; control 21.9 ± 2.9; P<0.05.

Turning to `CC(C)c1nc(N(C)S(C)(=O)=O)nc(-c2ccc(F)cc2)c1/C=C/[C@@H](O)C[C@@H](O)CC(=O)O` [Rosuvastatin], the “Aortic Lesion” value is given as 11.9 ± 1.9 %.
